For orientation: pIC50 means the negative decadic logarithm of the IC50, by convention in mol/L.

Consider 11 compounds from ChEMBL document CHEMBL3351940, “Antioxidant effects of the highly-substituted carbazole alkaloids and their related carbazoles” (Bioorg Med Chem Lett, 2014).

Structures are written as SMILES. pIC50: −log10 of the molar value.

Series [1] in a line: Cytotoxicity against human HCT116 cells assessed as reduction cell viability at 100 uM after 48 hrs by MTT assay. Type of series: cell-based. To be noted: hct-116, 48 h.
The nature of series [2]: Antioxidant activity assessed as reduction of Cu2+ to Cu+ after 3 mins by PAO-SO method. To be noted: 0.05 h. The class given is physicochemical.
Series [3] in a line: Antioxidant activity assessed as ABTS+ radical scavenging capacity after 16 hrs by UV spectrophotometry. Type of series: physicochemical.
Series [4] is described as follows: Antioxidant activity assessed as DPPH radical scavenging capacity after 30 mins by UV spectrophotometry. Type of series: physicochemical. A general note: Loss of DPPH colour is used to gauge radical scavenging.

As to `CCCCCCCc1c(C)c(O)cc2c1[nH]c1ccccc12`, the Activity result in series [1] is “Non-toxic”; in series [2] it was 2803 µmol/L. The pIC50 in series [3] was 3.80; in series [4], 4.92.

For `C/C(=C\c1c(C)c(O)cc2c1[nH]c1c(O)ccc(CO)c12)CCC(C)C`, the Activity entry is “Non-toxic” in series [1] and 3567 µmol/L in series [2]. The figures for the negative logarithm of the IC50 (pIC50) in series [3] and in series [4] were 3.95 and 5.00, respectively.

As for `C/C(=C\c1c(C)c(O)cc2c1[nH]c1c(O)ccc(C=O)c12)CCC(C)C`, the Activity result in series [1] is “Non-toxic”; in series [2] it was 4584 µmol/L. Also, the pIC50 was 4.28 in series [3] and 5.15 in series [4].

For the compound `CC[C@H](C)CC/C(C)=C/c1c(C)c(O)cc2c1[nH]c1c(O)ccc(CO)c12`, the Activity result in series [1] is “Non-toxic”; in series [2] it was 3413 µmol/L. Besides, the figures for the pIC50 in series [3] and in series [4] were 3.94 and 5.01, respectively.

In the case of `CC[C@H](C)CC/C(C)=C/c1c(C)c(O)cc2c1[nH]c1c(O)ccc(C=O)c12`, the Activity result in series [1] was “Non-toxic”; in series [2] it was 4580 µmol/L. Moreover, the pIC50 in series [3] was 4.24; in series [4] it was 5.12.

Take `CC(C)=CCc1ccc2[nH]c3c(c2c1)C(=O)C(=O)C(C)=C3CC(C)O` (centres undefined): the Activity result was “Toxic” in series [1] and 1182 µmol/L in series [2]. For the same compound, the values for the pIC50 in series [3] and in series [4] were less than 3.30 and less than 4.30, respectively.

For the compound `Cc1c(O)cc2c([nH]c3ccccc32)c1CC(C)O` (centres undefined), the values for the Activity result in series [1] and in series [2] were “Non-toxic” and 2881 µmol/L, respectively. Moreover, the results for the negative-log IC50 (pIC50) in series [3] and in series [4] were 3.79 and 4.92, respectively.

With `CC(C)=CCc1ccc2[nH]c3c(CC(C)O)c(C)c(O)cc3c2c1` (centres undefined), the Activity result in series [1] was “Toxic”; in series [2], 2411 µmol/L. The results for the pIC50 in series [3] and in series [4] were 3.76 and 4.92, respectively.

As for `Cc1c(C)c2c(c(C)c1O)CC[C@@](C)(CCC[C@H](C)CCC[C@H](C)CCCC(C)C)O2` [ALPHA-TOCOPHEROL], the Activity result is listed as “Non-toxic” in series [1] and “Active” in series [2]. Also, the pIC50 in series [3] was 3.68; in series [4] it was 4.81.

With `CC1=NN(c2ccccc2)C(=O)C1` [EDARAVONE], the Activity result was “Non-toxic” in series [1] and 3096 µmol/L in series [2]. Further, the values for the negative logarithm of the IC50 (pIC50) in series [3] and in series [4] were 3.67 and 4.71, respectively.

For the compound `CCCOC(=O)c1cc(O)c(O)c(O)c1` [PROPYL GALLATE], the results for the Activity entry in series [1] and in series [2] were “Non-toxic” and 3096 µmol/L, respectively. Further, the pIC50 in series [3] was 3.73; in series [4] it was 5.21.
